Values joined by “and” are separate entries in the source; they are usually repeats but may differ in a detail not shown here. Identical values can stand only once.
Brc1ccc2[n-]cnc2c1.CCCCCCCCCCCCCC[P+](CCCCCC)(CCCCCC)CCCCCC
100 kPa
Conditions	viscosity [mPa·s]
293.15 K	1910
298.15 K	1270
303.15 K	872
308.15 K	613
313.15 K	441
318.15 K	325
323.15 K	246

C1CCOC1
Conditions	viscosity
293.15 K, 101.33 kPa	0.48 mPa·s
298 K, 101 kPa	0.4608 mPa·s
298 K, 101.33 kPa	0.461 mPa·s
298.15 K, 101.33 kPa	0.53 mPa·s and 0.481 mPa·s and 0.472 mPa·s
303 K, 101 kPa	0.42 mPa·s and 0.42 mPa·s
303 K, 101.3 kPa	0.422 mPa·s
303.15 K, 101.32 kPa	0.449 mPa·s
303.15 K, 101.33 kPa	0.4496 mPa·s and 0.45 mPa·s and 0.45 mPa·s
308 K, 101.33 kPa	0.42 mPa·s
313 K, 101 kPa	0.39 mPa·s and 0.39 mPa·s
313 K, 101.3 kPa	0.402 mPa·s
313.15 K, 100 kPa	0.39 mPa·s
313.15 K, 101.33 kPa	0.4066 mPa·s
323.15 K, 101.33 kPa	0.3696 mPa·s

CC(C)=O
Conditions	viscosity
293.15 K, 100 kPa	0.3276 mPa·s and 0.3276 mPa·s
293.15 K, 101.32 kPa	0.318 mPa·s
293.15 K, 101.33 kPa	0.337 mPa·s and 0.321 mPa·s
293.16 K, 101 kPa	0.326 mPa·s
293.2 K, 101 kPa	0.323 mPa·s
294.15 K, 101 kPa	0.362 mPa·s
296 K, 101.3 kPa	0.311 mPa·s
298.15 K, 100 kPa	0.3186 mPa·s and 0.3186 mPa·s
298.15 K, 101.3 kPa	0.316 mPa·s
298.15 K, 101.33 kPa	0.3013 mPa·s and 0.3049 mPa·s and 0.307 mPa·s
298.16 K, 101 kPa	0.316 mPa·s
302.4 K, 101 kPa	0.5915 mPa·s
302.95 K, 101 kPa	0.295 mPa·s
303.05 K, 101 kPa	0.335 mPa·s
303.15 K, 100 kPa	0.3091 mPa·s and 0.3091 mPa·s and 0.303 mPa·s
303.15 K, 101.33 kPa	0.295 mPa·s and 0.298 mPa·s and 0.339 mPa·s
303.16 K, 101 kPa	0.295 mPa·s
303.95 K, 101 kPa	0.3366 mPa·s
307.35 K, 101.33 kPa	0.29 mPa·s
308.15 K, 100 kPa	0.2992 mPa·s and 0.2992 mPa·s
311.35 K, 101 kPa	0.3166 mPa·s
313.15 K, 100 kPa	0.289 mPa·s and 0.289 mPa·s and 0.276 mPa·s
313.15 K, 101.33 kPa	0.3089 mPa·s
313.25 K, 101 kPa	0.27 mPa·s
318.15 K, 100 kPa	0.2784 mPa·s and 0.2784 mPa·s
318.15 K, 101 kPa	0.279 mPa·s and 0.2649 mPa·s
318.15 K, 101.32 kPa	0.2496 mPa·s
322.95 K, 101 kPa	0.248 mPa·s
323.15 K, 100 kPa	0.2673 mPa·s and 0.2673 mPa·s and 0.255 mPa·s
323.15 K, 101.33 kPa	0.2871 mPa·s

CC(C)CC(=O)O
101.33 kPa
Conditions	viscosity [mPa·s]
293.15 K	2.411
313.15 K	1.672

CC(C)C[P+](C)(CC(C)C)CC(C)C.Cc1ccc(S(=O)(=O)[O-])cc1
Conditions	viscosity [mPa·s]
293.15 K, 101 kPa	1320

CC1COC(=O)O1 (stereo not drawn)
viscosity
Conditions	293.15 K	298.15 K	303.15 K	308.15 K	313.15 K	318.15 K	323.15 K
99.7 kPa	–	–	2.212 mPa·s	–	1.998 mPa·s	–	1.766 mPa·s
100 kPa	–	2.53 mPa·s	–	–	–	–	–
101 kPa	2.938 mPa·s and 2.738 mPa·s and 2.72 mPa·s	2.531 mPa·s and 2.468 mPa·s and 2.51 mPa·s	2.24 mPa·s and 2.3 mPa·s and 2.29 mPa·s	–	–	1.654 mPa·s and 1.724 mPa·s and 1.85 mPa·s	1.538 mPa·s and 1.595 mPa·s
101.3 kPa	2.746 mPa·s and 2.763 mPa·s and 2.762 mPa·s	–	2.246 mPa·s and 2.3 mPa·s and 2.149 mPa·s	2.049 mPa·s and 2.046 mPa·s	1.879 mPa·s and 1.902 mPa·s	1.73 mPa·s and 1.755 mPa·s and 1.703 mPa·s	1.6 mPa·s
101.33 kPa	2.721 mPa·s	–	2.237 mPa·s	–	1.863 mPa·s	–	–

CCCC(=O)[O-].OCC[NH2+]CCO
101.3 kPa
Conditions	viscosity [mPa·s]
293.15 K	1832
298.15 K	1226
303.15 K	839.8
308.15 K	588.7
313.15 K	421.1
318.15 K	307.1
323.15 K	227.9

CCCCn1cc[n+](C)c1.O=S(=O)([O-])C(F)(F)F
viscosity
Conditions	293.15 K	298.15 K	303.15 K	308.15 K	313.15 K	318.15 K	323.15 K
100 kPa	90.81 mPa·s and 102 mPa·s	76.01 mPa·s and 87.96 mPa·s and 80.1 mPa·s	63.6 mPa·s and 64.02 mPa·s	56.43 mPa·s and 52.18 mPa·s	42.11 mPa·s and 42.76 mPa·s	38.31 mPa·s and 35.66 mPa·s	30.02 mPa·s and 30.01 mPa·s
101 kPa	–	59.8 mPa·s	–	–	–	–	29.55 mPa·s

CCCc1ccccc1
Conditions	viscosity [mPa·s]
303.15 K, 101 kPa	0.7591
303.15 K, 101.3 kPa	0.75
308.15 K, 101.33 kPa	0.7001
313.15 K, 102 kPa	0.649
323.15 K, 102 kPa	0.573

CCOCCn1cc[n+](C)c1.C[C@@H](O)[C@H](N)C(=O)[O-]
100 kPa
Conditions	viscosity [mPa·s]
298.15 K	1133
303.15 K	730.3
308.15 K	438.8
313.15 K	312.5
318.15 K	206.8
323.15 K	153.8

CCOCCn1cc[n+](CCC#N)c1.O=S(=O)([N-]S(=O)(=O)C(F)(F)F)C(F)(F)F
101.33 kPa
Conditions	viscosity [mPa·s]
293.15 K	401.1
303.15 K	235.6
313.15 K	146.2
323.15 K	105

— the CheMixHub viscosity set
